Reference: ChEMBL document CHEMBL1133312, “S-nitrosothiols as novel, reversible inhibitors of human rhinovirus 3C protease” (Bioorg Med Chem Lett, 2000)
pKi: −log10 of the molar value. Square brackets hold non-standard residues; d marks the D form. Peptide text beside a SMILES is read from it. Cys(NO) = N[C@@H](CSN=O)C(=O)O

Columns and labels:
rhinovirus B14 [1] = experiment: Compound was evaluated for the inactivation of HRV 14 3C protease activity expressed as KI; assay type: functional, human rhinovirus type 14
rhinovirus B14 [2] = experiment: Compound was evaluated for the inactivation of HRV 14 3C protease activity expressed as kinact; assay type: functional, human rhinovirus type 14

Row | SMILES | pKi (rhinovirus B14 [1]) | K inact (rhinovirus B14 [2]) [min⁻¹]
1 | C[C@@H](CSN=O)C(=O)N1CCC[C@H]1C(=O)O | 2.68 | 0.457
2 | CC(=O)N[C@@H](C(=O)NC1C(O)OC(CO)C(O)C1O)C(C)(C)SN=O (stereo not given in full) | 2.30 | 0.982
3 | CC(=O)N[C@@H](C(=O)O)C(C)(C)SN=O | 2.73 | 0.243
4 | CC(=O)N[C@@H](CCC(=O)O)C(=O)N[C@@H](C)C(=O)N[C@@H](CC(C)C)C(=O)N[C@@H](Cc1ccccc1)C(=O)N[C@@H](CCC(N)=O)C(=O)N[C@@H](CSN=O)C(=O)NCC(=O)O (Ac-EALFQ[Cys(NO)]G-OH) | 4.70 | 0.107
5 | N[C@@H](CCC(=O)N[C@@H](CSN=O)C(=O)NCC(=O)O)C(=O)O [S-NITROSOGLUTATHIONE] | 3.44 | 0.237
